Experimental data from patent US20190183948A1, “USE OF BCL-XL INHIBITOR AND ONCOLYTIC VIRUS IN PREPARATION OF ANTITUMOR DRUG” (GUANGZHOU VIROTECH PHARMACEUTICAL CO., LTD., priority 2016, published 2019).

Legend:
Mcl-1 = Mcl-1 (Homo sapiens, UniProt Q07820); details: cited from earlier work
[1] = system: human liver cancer cell Hep3B; experiment: MTT survival rate (Example 2), Hep3B; format: cell-based; details: 48 hours, inhibitor 100 nM, M1 MOI=0.001
Method: a) Inoculation of cells and administration treatment: The cells in the exponential growth phase were selected and added into a DMEM complete culture medium (containing 10% fetal bovine serum and 1% penicillin/streptomycin (Life Technologies)) to prepare a cell suspension. The cells were inoculated into a 96-well culture plate at a density of 4×10^3/well. After 12 hours, the cells were completely adherent to the wall. […] The dose was used as follows: M1 virus that infected the cells; different dose gradient set for M1 virus. b) Reaction of MTT (3-(4,5-dimethylthiazol-2-yl)-2,5-diphenyltetrazolium bromide or methyl thiazolyl tetrazolium) with succinate dehydrogenase in the cells: 48 hours after culture, 20 μl of MIT (5 mg/ml) was added into each well, and was incubated for further 4 hours. After incubation, granular blue and purple formazan crystals formed in the living cells were observed by microscopic examination. c) Dissolution of formazan particles formed in the cells was accomplished as follows: the supernatant was carefully sucked off, and 100 μl/well of DMSO was added to dissolve the formed crystals, and was shaken in a microoscillator for 5 minutes. Then, the optical density (OD value) of each well was detected in an enzyme linked detector at a wavelength of 570 nm. The experiments were repeated for 3 times for each group. […]

[2] = system: Hep3B transplantable tumor; experiment: Transplantable tumor growth in nude mice, Hep3B (Example 4); format: in vivo, BALB/c nude mice; details: Hep3B s.c. in nude mice; ABT-263 i.p. 10 mg/kg/d, M1 tail vein 2×10^6 PFU/time, three injections
Method: (§1) This experiment was designed in a randomized, single-blind way. 5×10^6 Hep3B or LoVo cells were subcutaneously injected into dorsa of the 4-week-aged BALB/c nude mice.
(§2) The weight, length and width of the tumor were measured every two days, and the volume of the tumor was calculated according to the formula: (length×width 2)/2. After the volume of the tumor was measured, One-way ANOVA statistics was carried out, wherein *** represented p<0.001 and **represented p<0.01.

[3] = system: LoVo transplantable tumor; experiment: Transplantable tumor growth in nude mice, LoVo (Example 4); format: in vivo, BALB/c nude mice; details: LoVo s.c. in nude mice; ABT-263 i.p. 10 mg/kg/d, M1 tail vein 2×10^6 PFU/time, three injections
Method: as §1, §2

Bcl-w = biological target: T1, Bcl-w (Homo sapiens, UniProt Q92843); details: cited from earlier work
T1 sequence (Q92843 1-193): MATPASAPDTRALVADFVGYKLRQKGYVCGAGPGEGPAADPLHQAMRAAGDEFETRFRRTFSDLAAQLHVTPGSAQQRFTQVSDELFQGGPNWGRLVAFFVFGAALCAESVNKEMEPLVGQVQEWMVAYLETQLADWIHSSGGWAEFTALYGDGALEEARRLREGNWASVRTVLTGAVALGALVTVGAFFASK

A1 = biological target: T2, A1 (Homo sapiens, UniProt Q16548); details: cited from earlier work
T2 sequence (Q16548 1-175): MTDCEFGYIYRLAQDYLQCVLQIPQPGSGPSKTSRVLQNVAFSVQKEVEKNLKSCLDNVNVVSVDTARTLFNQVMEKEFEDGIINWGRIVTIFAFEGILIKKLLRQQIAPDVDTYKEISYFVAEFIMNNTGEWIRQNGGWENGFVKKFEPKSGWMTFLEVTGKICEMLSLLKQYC

Bcl-B = biological target: T3, Bcl-B (Homo sapiens, UniProt Q9HD36); details: cited from earlier work
T3 sequence (Q9HD36 1-204): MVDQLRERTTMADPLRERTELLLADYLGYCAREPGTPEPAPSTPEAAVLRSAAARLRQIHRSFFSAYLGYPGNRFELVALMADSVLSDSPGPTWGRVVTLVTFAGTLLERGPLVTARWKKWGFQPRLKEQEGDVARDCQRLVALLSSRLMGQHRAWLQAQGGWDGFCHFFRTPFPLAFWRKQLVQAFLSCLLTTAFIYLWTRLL

Bfl-1 = biological target: T4, Bfl-1 (Homo sapiens, UniProt Q16548); details: cited from earlier work
T4 sequence (Q16548 1-175): T2 sequence (Q16548 1-175)

Sequence of Mcl-1 (Q07820 whole entry, species assumed): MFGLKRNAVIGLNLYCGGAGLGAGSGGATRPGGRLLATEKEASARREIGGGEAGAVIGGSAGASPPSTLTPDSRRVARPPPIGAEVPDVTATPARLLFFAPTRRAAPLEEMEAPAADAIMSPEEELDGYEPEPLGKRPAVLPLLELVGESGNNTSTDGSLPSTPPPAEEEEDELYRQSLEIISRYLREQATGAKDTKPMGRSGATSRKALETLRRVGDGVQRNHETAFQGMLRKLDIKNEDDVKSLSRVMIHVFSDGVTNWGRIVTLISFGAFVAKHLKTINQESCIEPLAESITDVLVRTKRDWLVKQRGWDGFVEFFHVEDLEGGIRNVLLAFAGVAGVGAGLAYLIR

CC1(C)CCC(CN2CCN(c3ccc(C(=O)NS(=O)(=O)c4ccc(NCC5CCOCC5)c([N+](=O)[O-])c4)c(Oc4cnc5[nH]ccc5c4)c3)CC2)=C(c2ccc(Cl)cc2)C1 [ABT-199]
binding / inhibitory effect on Mcl-1 (Mcl-1): no activity

CC1(C)CCC(c2ccc(Cl)cc2)=C(CN2CCN(c3ccc(C(=O)NS(=O)(=O)c4ccc(N[C@H](CCN5CCOCC5)CSc5ccccc5)c(S(=O)(=O)C(F)(F)F)c4)cc3)CC2)C1 [ABT-263]
survival rate of the tumor cells [1]: 88.8% | tumor volume vs control group [2]: slight shrinkage of the tumor volume | tumor volume vs control group [3]: slight shrinkage of the tumor volume | Ki (Bcl-w): ≤ 1 nM | binding / inhibitory effect on Mcl-1 (Mcl-1): binds weakly | binding to A1 (A1): binds weakly

CN(C)CC[C@H](CSc1ccccc1)Nc1ccc(S(=O)(=O)NC(=O)c2ccc(N3CCN(Cc4ccccc4-c4ccc(Cl)cc4)CC3)cc2)cc1[N+](=O)[O-] [ABT-737]
binding / inhibitory effect on Mcl-1 (Mcl-1): no inhibitory effect | inhibitory effect on Bcl-B (Bcl-B): no inhibitory effect | inhibitory effect on Bfl-1 (Bfl-1): no inhibitory effect
